Experimental data as given in patent US20220331303A1, “USE OF AN OREXIN 2 RECEPTOR AGONIST FOR THE TREATMENT OF EXCESSIVE SLEEPINESS” (Takeda Pharmaceutical Company Limited, priority 2019, published 2022).
Where two headings read alike, the source gives them in different places.

Assays:
patients with NT2 = assay: Safety/tolerability of multiple IV doses in patients with NT2; format: in vivo, human
Description: (§1) The purpose of the study was to evaluate the safety, tolerability, pharmacokinetics and pharmacodynamics of Compound A after multiple days of IV administration in patients with NT2. NT2 patients were evaluated in Cohort C1 and C2 (Table 30). Compound A or placebo were administered via IV infusion over 9 hours once daily for 7 days. A total of 14 patients with NT2 were treated with Compound A or placebo (5, 4, and 5 subjects in the placebo, Compound A 44 mg, and Compound A 112 mg groups, respectively). In this part, potential efficacy of Compound A was evaluated with MWT, ESS, KSS, night-time PSG (NPSG), and PGI-C as an exploratory PD assessment.

[1] = Multiple-dose plasma PK of IV Compound A in patients with NT2; format: in vivo, human; conditions: for Cmax / concentration at 1 h / concentration at 2 h / concentration at 4 h / concentration at 6 h / concentration at 9 h / Tmax / AUC(0-inf) / AUC(0-t) / AUC / clearance / Vd: human, plasma, intravenous; for concentration at 1 h: 1 Hour Postdose at Day 1; for concentration at 2 h: 2 Hours Postdose at Day 1; for concentration at 4 h: 4 Hours Postdose at Day 1; for concentration at 6 h: 6 Hours Postdose at Day 1; for clearance: read-out: CL Mean (converted)
Description: as §1
Blood samples used for PK analysis of Compound A was collected according to Table 31. See also FIG. 10 for whole schedules of study procedures.

[2] = multiple IV administrations of up to 112 mg, NT2 patients

Plasma Concentration Mean ([1]; Cmpd A 44 mg, 0.17 Hour after End of Infusion at Day 1): 0.04548 µg/mL
Plasma Concentration Mean ([1]; Cmpd A 44 mg, 0.5 Hour after End of Infusion at Day 1): 0.03398 µg/mL
Plasma Concentration Mean ([1]; Cmpd A 44 mg, 2 Hours after End of Infusion at Day 1): 0.01633 µg/mL
Plasma Concentration Mean ([1]; Cmpd A 44 mg, 6 Hours after End of Infusion at Day 1): 0.00502 µg/mL
Plasma Concentration Mean ([1]; Cmpd A 44 mg, 9 Hours Postdose at Day 5): 0.07315 µg/mL
Plasma Concentration Mean ([1]; Cmpd A 44 mg, 9 Hours Postdose at Day 6): 0.0658 µg/mL
Plasma Concentration Mean ([1]; Cmpd A 44 mg, 10 Hours after End of Infusion at Day 1): 0.002515 µg/mL
Plasma Concentration Mean ([1]; Cmpd A 44 mg, 14 Hours after End of Infusion at Day 1): 0.0007016 µg/mL
AUCtau D Mean ([1]; Cmpd A 44 mg, Day 1): 14.83 ng·h/mL/mg
Cmax D Mean ([1]; Cmpd A 44 mg, Day 1): 1.685 ng/mL/mg
t½z Mean ([1]; Cmpd A 44 mg, Day 1): 2.708 h
AUCtau D Mean ([1]; Cmpd A 44 mg, Day 7): 15.00 ng·h/mL/mg
Cmax D Mean ([1]; Cmpd A 44 mg, Day 7): 1.745 ng/mL/mg
PTR Mean ([1]; Cmpd A 44 mg, Day 7): 202.0
UCtau Geo Mean ([1]; Cmpd A 44 mg, Day 7): 0.6571 µg·h/mL
UCtau Mean ([1]; Cmpd A 44 mg, Day 7): 0.66 µg·h/mL
t½z Mean ([1]; Cmpd A 44 mg, Day 7): 2.643 h
Plasma Concentration Mean ([1]; Cmpd A 44 mg, Predose at Day 1): 0 µg/mL
Plasma Concentration Mean ([1]; Cmpd A 44 mg, Predose at Day 5): 0.0009273 µg/mL
Plasma Concentration Mean ([1]; Cmpd A 44 mg, Predose at Day 6): 0.0007163 µg/mL
Plasma Concentration Mean ([1]; Cmpd A 44 mg, Predose at Day 7): 0.0005635 µg/mL
Plasma Concentration Mean ([1]; Cmpd A 112 mg, 0.17 Hour after End of Infusion at Day 1): 0.08103 µg/mL
Plasma Concentration Mean ([1]; Cmpd A 112 mg, 0.5 Hour after End of Infusion at Day 1): 0.07526 µg/mL
Plasma Concentration Mean ([1]; Cmpd A 112 mg, 2 Hours after End of Infusion at Day 1): 0.03246 µg/mL
Plasma Concentration Mean ([1]; Cmpd A 112 mg, 6 Hours after End of Infusion at Day 1): 0.01203 µg/mL
Plasma Concentration Mean ([1]; Cmpd A 112 mg, 10 Hours after End of Infusion at Day 1): 0.00561 µg/mL
AUCtau D Mean ([1]; Cmpd A 112 mg, Day 1): 13.52 ng·h/mL/mg
Cmax D Mean ([1]; Cmpd A 112 mg, Day 1): 1.540 ng/mL/mg
t½z Mean ([1]; Cmpd A 112 mg, Day 1): 2.800 h
AUCtau D Mean ([1]; Cmpd A 112 mg, Day 7): 13.68 ng·h/mL/mg
Cmax D Mean ([1]; Cmpd A 112 mg, Day 7): 1.550 ng/mL/mg
PTR Mean ([1]; Cmpd A 112 mg, Day 7): 201.1
UCtau Geo Mean ([1]; Cmpd A 112 mg, Day 7): 1.519 µg·h/mL
UCtau Mean ([1]; Cmpd A 112 mg, Day 7): 1.534 µg·h/mL
t½z Mean ([1]; Cmpd A 112 mg, Day 7): 3.136 h
Plasma Concentration Mean ([1]; Cmpd A 112 mg, Predose at Day 1): 0 µg/mL
Drug accumulation ([1]; QD 9-hour IV infusion daily for 7 days): no drug accumulation was observed
Cmax ([1]; 44 mg, Cmax Geo Mean, Cmpd A 44 mg, Day 7): 0.0764 µg/mL
concentration at 1 h ([1]; 44 mg, Cmpd A 44 mg): 0.0474 µg/mL
concentration at 2 h ([1]; 44 mg, Cmpd A 44 mg): 0.059 µg/mL
concentration at 4 h ([1]; 44 mg, Cmpd A 44 mg): 0.0741 µg/mL
concentration at 6 h ([1]; 44 mg, Cmpd A 44 mg): 0.05 µg/mL
concentration at 9 h ([1]; 44 mg, Cmpd A 44 mg, 9 Hours Postdose at Day 1, read-out: Plasma Concentration Mean): 0.0691 µg/mL
Tmax ([1]; 44 mg, Cmpd A 44 mg, Day 1): 3.88 h
AUC(0-inf) ([1]; 44 mg, Cmpd A 44 mg, Day 1, read-out: AUCinf Geo mean): 0.651 µg·h/mL
AUC(0-inf) ([1]; 44 mg, Cmpd A 44 mg, Day 1, read-out: AUCinf Mean): 0.655 µg·h/mL
AUC(0-t) ([1]; 44 mg, Cmpd A 44 mg, Day 1, read-out: AUClast Geo mean): 0.648 µg·h/mL
AUC(0-t) ([1]; 44 mg, Cmpd A 44 mg, Day 1, read-out: AUClast Mean): 0.652 µg·h/mL
AUC ([1]; 44 mg, Cmpd A 44 mg, Day 1, read-out: AUCtau Geo mean): 0.648 µg·h/mL
AUC ([1]; 44 mg, Cmpd A 44 mg, Day 1, read-out: AUCtau Mean): 0.652 µg·h/mL
clearance ([1]; 44 mg, Cmpd A 44 mg, Day 1): 1130 mL/min
concentration at 9 h ([1]; 44 mg, Cmpd A 44 mg, Day 1, read-out: Ceoi Geo mean): 0.0687 µg/mL
concentration at 9 h ([1]; 44 mg, Cmpd A 44 mg, Day 1, read-out: Ceoi Mean): 0.0691 µg/mL
Cmax ([1]; 44 mg, Cmpd A 44 mg, Day 1, read-out: Cmax Geo mean): 0.0739 µg/mL
Cmax ([1]; 44 mg, Cmpd A 44 mg, Day 1, read-out: Cmax Mean): 0.0741 µg/mL
Vd ([1]; 44 mg, Cmpd A 44 mg, Day 1, read-out: Vss Mean): 122 L
Vd ([1]; 44 mg, Cmpd A 44 mg, Day 1, read-out: Vz Mean): 288 L
Tmax ([1]; 44 mg, Cmpd A 44 mg, Day 7): 3.91 h
AUC(0-t) ([1]; 44 mg, Cmpd A 44 mg, Day 7, read-out: AUClast Geo Mean): 0.657 µg·h/mL
AUC(0-t) ([1]; 44 mg, Cmpd A 44 mg, Day 7, read-out: AUClast Mean): 0.66 µg·h/mL
clearance ([1]; 44 mg, Cmpd A 44 mg, Day 7): 1120 mL/min
Cmax ([1]; 44 mg, Cmpd A 44 mg, Day 7, read-out: Cmax Mean): 0.0767 µg/mL
Vd ([1]; 44 mg, Cmpd A 44 mg, Day 7, read-out: Vss Mean): 114 L
Vd ([1]; 44 mg, Cmpd A 44 mg, Day 7, read-out: Vz Mean): 258 L
Cmax ([1]; 112 mg, Cmax Geo Mean, Cmpd A 112 mg, Day 7): 0.172 µg/mL
concentration at 1 h ([1]; 112 mg, Cmpd A 112 mg): 0.123 µg/mL
concentration at 2 h ([1]; 112 mg, Cmpd A 112 mg): 0.143 µg/mL
concentration at 4 h ([1]; 112 mg, Cmpd A 112 mg): 0.17 µg/mL
concentration at 6 h ([1]; 112 mg, Cmpd A 112 mg): 0.138 µg/mL
concentration at 9 h ([1]; 112 mg, Cmpd A 112 mg, 9 Hours Postdose at Day 1, read-out: Plasma Concentration Mean): 0.15 µg/mL
Tmax ([1]; 112 mg, Cmpd A 112 mg, Day 1): 4.93 h
AUC(0-inf) ([1]; 112 mg, Cmpd A 112 mg, Day 1, read-out: AUCinf Geo mean): 1.5 µg·h/mL
AUC(0-inf) ([1]; 112 mg, Cmpd A 112 mg, Day 1, read-out: AUCinf Mean): 1.52 µg·h/mL
AUC(0-t) ([1]; 112 mg, Cmpd A 112 mg, Day 1, read-out: AUClast Geo mean): 1.5 µg·h/mL
AUC(0-t) ([1]; 112 mg, Cmpd A 112 mg, Day 1, read-out: AUClast Mean): 1.52 µg·h/mL
AUC ([1]; 112 mg, Cmpd A 112 mg, Day 1, read-out: AUCtau Geo mean): 1.5 µg·h/mL
AUC ([1]; 112 mg, Cmpd A 112 mg, Day 1, read-out: AUCtau Mean): 1.52 µg·h/mL
clearance ([1]; 112 mg, Cmpd A 112 mg, Day 1): 1260 mL/min
concentration at 9 h ([1]; 112 mg, Cmpd A 112 mg, Day 1, read-out: Ceoi Geo mean): 0.156 µg/mL
concentration at 9 h ([1]; 112 mg, Cmpd A 112 mg, Day 1, read-out: Ceoi Mean): 0.158 µg/mL
Cmax ([1]; 112 mg, Cmpd A 112 mg, Day 1, read-out: Cmax Geo mean): 0.171 µg/mL
Cmax ([1]; 112 mg, Cmpd A 112 mg, Day 1, read-out: Cmax Mean): 0.172 µg/mL
Vd ([1]; 112 mg, Cmpd A 112 mg, Day 1, read-out: Vss Mean): 121 L
Vd ([1]; 112 mg, Cmpd A 112 mg, Day 1, read-out: Vz Mean): 299 L
AUC(0-t) ([1]; 112 mg, Cmpd A 112 mg, Day 7, read-out: AUClast Geo Mean): 1.52 µg·h/mL
AUC(0-t) ([1]; 112 mg, Cmpd A 112 mg, Day 7, read-out: AUClast Mean): 1.53 µg·h/mL
clearance ([1]; 112 mg, Cmpd A 112 mg, Day 7): 1240 mL/min
Cmax ([1]; 112 mg, Cmpd A 112 mg, Day 7, read-out: Cmax Mean): 0.173 µg/mL
Vd ([1]; 112 mg, Cmpd A 112 mg, Day 7, read-out: Vss Mean): 124 L
Vd ([1]; 112 mg, Cmpd A 112 mg, Day 7, read-out: Vz Mean): 338 L
Structure (SMILES): COC(=O)N1CCC[C@H](NS(C)(=O)=O)[C@@H]1CO[C@H]1CC[C@@H](c2ccccc2)CC1 [Compound A, methyl (2R,3S)-3-((methylsulfonyl)amino)-2-(((cis-4-phenylcyclohexyl)oxy)methyl)piperidine-1-carboxylate]
Number of TEAE related to BP (blood pressure increased) (patients with NT2; Compound A 112 mg group, mild intensity): 1
SAE / TEAE leading to study drug discontinuation (patients with NT2; [2]): no SAE, and no TEAE leading to study drug discontinuation
Safety and tolerability (patients with NT2; [2]): safe and well tolerated
Dose proportionality of mean plasma systemic exposures ([1]; daily 9-hour IV infusions, 44 and 112 mg): generally increased in a dose proportional manner
